Data set [1] is described as follows: Dog pK study (Example 4), 20 mg dose. Also on record: species or system dogs. Particulars: in vivo, iv, 10 mg.
Data set [2] is described as follows: Oral absorption / pharmacokinetics of Compound (I) formulations in cynomolgus monkeys. Type of data set: in vivo. Particulars: cyno monkeys. As for the experimental part:
An aqueous suspension of […] was prepared at 10% solid content. […] Six enteric coated tablets were encapsulated in a size #00 hard gelatin capsule for the cyno PK study. Each cyno monkey was dosed with 2 capsules (12 enteric coated tablets). […] The mean exposure is shown in FIG. 1 with error bars showing the standard deviation.

The nature of data set [3]: Dog pK study (Example 5E), effect of sodium decanoate amount and number of tablets, 100 mg dose. Also on record: species or system dogs. Particulars: in vivo, iv, 10 mg. As for the experimental part:
Blood samples were withdrawn over a period of 72 hours. […] Error bars describe standard deviation. […] Decreasing the amount of sodium decanoate decreased PK exposure at 330 mg of sodium decanoate. […] Table 12 summarizes all of the PK data for all the formulations tested in Example 5.

[4] abbreviates: 0.1 mg/kg IV (0.5 mg), reference.

A word on the Cmax: it is the highest concentration seen after dosing.

As to `CCCC[C@H]1C(=O)N(C)[C@@H](CCCC)C(=O)N[C@@H](CC(C)C)C(=O)N[C@H](C(=O)NCC(=O)N[C@@H](Cc2cn(CCOCCOCCCOCCCOCCOCCOCCOCCOCCOCCOCCOCCNC(=O)CC[C@H](NC(=O)CCCCCCCCCCCCCCCCC(=O)O)C(=O)O)nn2)C(=O)O)CSCC(=O)N[C@@H](Cc2ccc(O)cc2)C(=O)N(C)[C@@H](C)C(=O)N[C@@H](CC(N)=O)C(=O)N2CCC[C@H]2C(=O)N[C@@H](CN)C(=O)N[C@@H](CC(C)C)C(=O)N2C[C@H](O)C[C@H]2C(=O)N[C@@H](Cc2c[nH]c3ccccc23)C(=O)N[C@@H](CCN)C(=O)N[C@@H](Cc2cn(CC(=O)O)c3ccccc23)C(=O)N1C` [Compound (I)], in data set [1], the “AUCinf (ng · h/mL) Mean” value was found to be 1198.53803 µg·h/mL and the “Cmax (ng/mL) Mean” value worked out at 25466.29 ng/mL. Moreover, in data set [2] (0.1 mg/kg IV (0.5 mg)), the “AUC0-24 h (nM · h) Mean” value worked out at 47.61351 µM·h, the “AUCinf (nM · h) Mean” value was found to be 51.96595 µM·h and the highest concentration (Cmax) was 798 nM. Further, in data set [2] (setting [4]), the “BA (%) Mean” value turned out to be 100.00% and the “BA (%) using AUCInf Mean” value was 100.00%. Besides, the “plasma concentration of Compound (I) over time” value in data set [2] (oral, 12 mg, formulated as in Example 1, 72 hours) was “good plasma concentration”. Also, in data set [3], the “AUCinf (ng · h/mL) Mean” value was 1198.53803 µg·h/mL and the “Cmax (ng/mL) Mean” value stood at 25466.29 ng/mL.

The values are drawn from patent publication US20260263552A1, “PHARMACEUTICAL COMPOSITIONS FOR IMPROVING ORAL BIOAVAILABILITY” (priority 2023, published 2026).
